Experimental data as given in publication PMC3500438 (Organic letters, 2012).
Entries after “also recorded” stand apart in the source; their conditions may differ.

Assays:
[1] = tested on: 97 kinases (both wild-type and mutants); assay: KINOMEscan panel; type: binding; details: 10 μM
[2] = tested on: rat PDE4 (Rolipram); assay: rat Rolipram radioligand binding; set-up: species or system Wistar rat; details: for IC50: read-out: rat Rolipram IC50; for IC50 / Ki: Wistar rat brain, 1.8 nM [3H] rolipram, 1% DMSO, 60 min at 4 °C, 50 mM Tris-HCl, pH 7.4; for Ki: read-out: rat Rolipram Ki
[3] = tested on: 68 GPCRs, ion channels and transporters; assay: Lead Profiling screen; type: binding; details: 10 μM, 68 targets
[4] = cited from earlier work
[5] = target: 5-HT2B (Homo sapiens, UniProt P41595); assay: Lead Profiling screen radioligand binding, 5-HT2B
Sequence of 5-HT2B (P41595 whole entry, species assumed): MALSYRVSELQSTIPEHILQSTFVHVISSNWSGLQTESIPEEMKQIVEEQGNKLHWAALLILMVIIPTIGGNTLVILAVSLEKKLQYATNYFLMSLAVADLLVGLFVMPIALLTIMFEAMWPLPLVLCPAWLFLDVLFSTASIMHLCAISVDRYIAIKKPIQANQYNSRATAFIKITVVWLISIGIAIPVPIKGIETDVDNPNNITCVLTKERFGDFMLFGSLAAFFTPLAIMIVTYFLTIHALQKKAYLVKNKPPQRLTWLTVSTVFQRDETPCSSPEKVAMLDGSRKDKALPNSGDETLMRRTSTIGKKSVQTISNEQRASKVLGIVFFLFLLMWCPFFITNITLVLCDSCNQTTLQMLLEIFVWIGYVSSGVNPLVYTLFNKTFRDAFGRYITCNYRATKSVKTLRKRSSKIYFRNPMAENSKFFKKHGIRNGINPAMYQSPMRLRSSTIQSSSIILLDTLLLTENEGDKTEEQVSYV

[6] = tested on: healthy cells; details: cited from earlier work

SMILES | activity in KINOMEscan panel [1] | PDE4/Rolipram activity in radioligand binding panel ([2]; 10 μM) | IC50 [2] | Ki [2] | ancillary pharmacology in Lead Profiling screen [3] | antimalarial activity [4] | 5-HT2B activity in radioligand binding panel ([5]; 10 μM) | Ki ([5]; read-out: 5-HT2B Ki, full concentration-response-curve) | toxicity to healthy cells / cytotoxicity [6] | PDE4 activity (in words) ([2]; rat PDE4 (Rolipram) and human PDE4)
Nc1ncnc2c1ncn2Cc1nc2ccccc2c2cc[nH]c12 [compound 6, aplidiopsamine A] | uniformly inactive | 74% | 3.3 µM | 1200 nM | activity at only two targets | potent antimalarial agent | 62% | ~10 µM | without toxicity to healthy cells; also recorded: not be cytotoxic | 
Cc1nc2ccccc2c2cc[nH]c12 [compound 1, marinoquinoline A] |  |  | > 100 µM | > 100000 nM |  |  |  |  |  | inactive
